In PubChem BioAssay AID256 (DTP/NCI, 2004) one finds T/C data, which are given here for 6 compounds.

Molecules are shown by their SMILES. Several values for one entry are separate records, joined by “and”; a condition that tells them apart may be missing. Identical values can stand only once. Inconclusive results and toxic doses are left out.

The subject of the test is CD2F1 mice, L1210 leukemia ip, survival T/C. The experiment in a line: NCI In Vivo Anticancer Drug Screen. Data for tumor model L1210 Leukemia (intraperitoneal) in CD2F1 (CDF1) mice. Particulars: higher = longer survival. The gist of the method: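 Ratio T/C, where T is the treated-group value and C the vehicle-dosed control value, from mice implanted with a transplantable tumor.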

[1] abbreviates: endpoint: mean survival time, dose: 100.0 mg/kg/injection, schedule: Q04DX003 (ip), vehicle: saline with Tween-80.

For `S=P(N1CC1)(N1CC1)N1CC1`, the T/C reads like this: (endpoint: mean survival time, dose: 0.5 mg/kg/injection, schedule: Q01DX009 (ip), vehicle: saline) 112 % of control; (endpoint: mean survival time, dose: 0.5 mg/kg/injection, schedule: Q03HX024 (ip), vehicle: saline) 112 % of control; (endpoint: mean survival time, dose: 1.0 mg/kg/injection, schedule: Q01DX005 (iv), vehicle: saline) 101 % of control; (endpoint: mean survival time, dose: 1.0 mg/kg/injection, schedule: Q01DX009 (ip), vehicle: saline) 96 % of control and 112 % of control; (endpoint: mean survival time, dose: 1.0 mg/kg/injection, schedule: Q01DX009 (sc), vehicle: saline) 114 % of control; (endpoint: mean survival time, dose: 1.0 mg/kg/injection, schedule: Q03HX008 (ip), vehicle: saline) 106 % of control. Also, the T/C runs as follows: (endpoint: mean survival time, dose: 1.0 mg/kg/injection, schedule: Q03HX016 (ip), vehicle: saline) 104 % of control; (endpoint: mean survival time, dose: 1.5 mg/kg/injection, schedule: Q01DX009 (ip), vehicle: saline) 111 % of control; (endpoint: mean survival time, dose: 2.0 mg/kg/injection, schedule: Q01DX005 (iv), vehicle: saline) 108 % of control; (endpoint: mean survival time, dose: 2.0 mg/kg/injection, schedule: Q01DX009 (ip), vehicle: saline) 120 % of control and 122 % of control (2×); (endpoint: mean survival time, dose: 2.0 mg/kg/injection, schedule: Q03DX003 (ip), vehicle: saline) 112 % of control; (endpoint: mean survival time, dose: 2.0 mg/kg/injection, schedule: Q03HX008 (ip), vehicle: saline) 118 % of control. The T/C (endpoint: mean survival time, dose: 2.0 mg/kg/injection, schedule: Q03HX016 (ip), vehicle: saline) is 117 % of control; the T/C (endpoint: mean survival time, dose: 2.0 mg/kg/injection, schedule: Q03HX024 (ip), vehicle: saline) is 88 % of control; the T/C (endpoint: mean survival time, dose: 2.0 mg/kg/injection, schedule: Q04DX003 (ip), vehicle: saline) was 101 % of control; the T/C (endpoint: mean survival time, dose: 2.5 mg/kg/injection, schedule: Q04DX003 (ip), vehicle: saline) was 101 % of control; the T/C (endpoint: mean survival time, dose: 4.0 mg/kg/injection, schedule: Q01DX001 (iv), vehicle: saline) is 117 % of control; the T/C (endpoint: mean survival time, dose: 4.0 mg/kg/injection, schedule: Q01DX001 (sc), vehicle: saline) was 103 % of control. The T/C was 158 % of control (endpoint: mean survival time, dose: 4.0 mg/kg/injection, schedule: Q01DX007 (ip), vehicle: saline); 154 % of control and 166 % of control and 171 % of control (endpoint: mean survival time, dose: 4.0 mg/kg/injection, schedule: Q01DX009 (ip), vehicle: saline); 122 % of control (endpoint: mean survival time, dose: 4.0 mg/kg/injection, schedule: Q01DX009 (oral), vehicle: saline); 120 % of control (endpoint: mean survival time, dose: 4.0 mg/kg/injection, schedule: Q04DX003 (ip), vehicle: saline); 115 % of control (endpoint: mean survival time, dose: 6.0 mg/kg/injection, schedule: Q01DX001 (ip), vehicle: saline); 112 % of control (endpoint: mean survival time, dose: 7.7 mg/kg/injection, schedule: Q01DX001 (ip), vehicle: saline with Tween-80). The T/C runs as follows: (endpoint: mean survival time, dose: 7.7 mg/kg/injection, schedule: Q01DX001 (ip), vehicle: saline) 123 % of control and 106 % of control; (endpoint: mean survival time, dose: 8.0 mg/kg/injection, schedule: Q01DX001 (ip), vehicle: saline) 110 % of control; (endpoint: mean survival time, dose: 8.0 mg/kg/injection, schedule: Q01DX001 (sc), vehicle: saline) 115 % of control; (endpoint: mean survival time, dose: 8.0 mg/kg/injection, schedule: Q01DX007 (ip), vehicle: saline) 110 % of control; (endpoint: mean survival time, dose: 8.0 mg/kg/injection, schedule: Q01DX009 (sc), vehicle: saline) 114 % of control; (endpoint: mean survival time, dose: 8.0 mg/kg/injection, schedule: Q03DX003 (ip), vehicle: saline) 209 % of control. The T/C is 179 % of control and 183 % of control (endpoint: mean survival time, dose: 8.0 mg/kg/injection, schedule: Q04DX003 (ip), vehicle: saline); 122 % of control (endpoint: mean survival time, dose: 8.0 mg/kg/injection, schedule: Q08DX002 (ip), vehicle: saline); 153 % of control (endpoint: mean survival time, dose: 10.0 mg/kg/injection, schedule: Q04DX003 (ip), vehicle: saline); 122 % of control (endpoint: mean survival time, dose: 10.9 mg/kg/injection, schedule: Q01DX001 (ip), vehicle: saline with Tween-80); 122 % of control and 124 % of control (endpoint: mean survival time, dose: 10.9 mg/kg/injection, schedule: Q01DX001 (ip), vehicle: saline); 153 % of control (endpoint: mean survival time, dose: 12.0 mg/kg/injection, schedule: Q01DX001 (ip), vehicle: saline). For the same compound, the T/C reads like this: (endpoint: mean survival time, dose: 15.0 mg/kg/injection, schedule: Q01DX001 (ip), vehicle: saline) 161 % of control; (endpoint: mean survival time, dose: 16.0 mg/kg/injection, schedule: Q01DX001 (ip), vehicle: saline) 154 % of control; (endpoint: mean survival time, dose: 16.0 mg/kg/injection, schedule: Q01DX001 (iv), vehicle: saline) 155 % of control; (endpoint: mean survival time, dose: 16.0 mg/kg/injection, schedule: Q01DX009 (ip), vehicle: saline) 96 % of control; (endpoint: mean survival time, dose: 16.0 mg/kg/injection, schedule: Q01DX009 (oral), vehicle: saline) 120 % of control; (endpoint: mean survival time, dose: 16.0 mg/kg/injection, schedule: Q04DX003 (ip), vehicle: saline) 95 % of control. For the same compound, the T/C is 124 % of control (endpoint: mean survival time, dose: 20.0 mg/kg/injection, schedule: Q04DX003 (ip), vehicle: saline); 163 % of control (endpoint: mean survival time, dose: 22.4 mg/kg/injection, schedule: Q01DX001 (ip), vehicle: saline with Tween-80); 89 % of control (endpoint: mean survival time, dose: 32.0 mg/kg/injection, schedule: Q01DX001 (ip), vehicle: saline with Tween-80); 154 % of control (endpoint: mean survival time, dose: 32.0 mg/kg/injection, schedule: Q01DX001 (oral), vehicle: saline); 117 % of control (endpoint: median survival time, dose: 1.56 mg/kg/injection, schedule: Q01DX009 (ip), vehicle: saline); 97 % of control (endpoint: median survival time, dose: 3.0 mg/kg/injection, schedule: Q01DX009 (ip), vehicle: water). The T/C (endpoint: median survival time, dose: 3.13 mg/kg/injection, schedule: Q01DX009 (ip), vehicle: saline) was 164 % of control and 178 % of control; the T/C (endpoint: median survival time, dose: 6.0 mg/kg/injection, schedule: Q01DX009 (ip), vehicle: water) is 95 % of control; the T/C (endpoint: median survival time, dose: 8.0 mg/kg/injection, schedule: Q01DX009 (ip), vehicle: water) is 88 % of control; the T/C (endpoint: median survival time, dose: 12.5 mg/kg/injection, schedule: Q01DX009 (ip), vehicle: saline) was 88 % of control and 107 % of control; the T/C (endpoint: median survival time, dose: 16.0 mg/kg/injection, schedule: Q01DX009 (ip), vehicle: water) was 77 % of control; the T/C (endpoint: median survival time, dose: 20.0 mg/kg/injection, schedule: Q01DX001 (ip), vehicle: saline) was 172 % of control. The T/C (endpoint: median survival time, dose: 25.0 mg/kg/injection, schedule: Q01DX001 (ip), vehicle: saline) is 193 % of control.
For the compound `c1ccc(SSc2ccccc2)cc1`, under setting [1], the T/C is 100 % of control.
With `O=c1[nH]cnc2c1nnn2C1OC(CO)C(O)C1O` (configuration not stated), the T/C runs as follows: (endpoint: median survival time, dose: 50.0 mg/kg/injection, schedule: Q01DX005 (ip), vehicle: saline) 121 % of control; (endpoint: median survival time, dose: 200.0 mg/kg/injection, schedule: Q01DX005 (ip), vehicle: saline) 156 % of control; (endpoint: median survival time, dose: 400.0 mg/kg/injection, schedule: Q01DX005 (ip), vehicle: saline) 160 % of control; (endpoint: median survival time, dose: 400.0 mg/kg/injection, schedule: Q01DX005 (ip), vehicle: suspension in saline) 90 % of control; (endpoint: median survival time, dose: 800.0 mg/kg/injection, schedule: Q01DX005 (ip), vehicle: saline) 111 % of control.
For `CC(=O)N(c1ccccc1)C1CCC2(C)C(=CCC3C2CCC2(C)C(C(C)CCCC(C)C)CCC32)C1` (configuration not stated), the T/C was 96 % of control (endpoint: mean survival time, dose: 100.0 mg/kg/injection, schedule: Q01DX009 (sc), vehicle: steriod suspending solution); 95 % of control (endpoint: mean survival time, dose: 100.0 mg/kg/injection, schedule: Q04DX003 (sc), vehicle: steriod suspending solution); 102 % of control (endpoint: mean survival time, dose: 200.0 mg/kg/injection, schedule: Q01DX009 (sc), vehicle: steriod suspending solution); 93 % of control (endpoint: mean survival time, dose: 200.0 mg/kg/injection, schedule: Q04DX003 (sc), vehicle: steriod suspending solution); 102 % of control (endpoint: mean survival time, dose: 400.0 mg/kg/injection, schedule: Q01DX009 (sc), vehicle: steriod suspending solution); 96 % of control (endpoint: mean survival time, dose: 400.0 mg/kg/injection, schedule: Q04DX003 (sc), vehicle: steriod suspending solution).
On to `CCOC(=O)c1c(NC(C)=O)sc2c1CCCC2`, for which the T/C is, setting by setting: under setting [1], 97 % of control; (endpoint: mean survival time, dose: 200.0 mg/kg/injection, schedule: Q04DX003 (ip), vehicle: saline with Tween-80) 106 % of control.
As to `Cc1cc(CBr)c(O)c(CBr)c1`, the T/C was 101 % of control (endpoint: mean survival time, dose: 25.0 mg/kg/injection, schedule: Q01DX009 (ip), vehicle: other); 93 % of control (endpoint: mean survival time, dose: 50.0 mg/kg/injection, schedule: Q01DX009 (ip), vehicle: other); 104 % of control (endpoint: mean survival time, dose: 100.0 mg/kg/injection, schedule: Q01DX009 (ip), vehicle: other).
